Reference: patent US8039438B2, “Synthetic peptides that cause F-actin bundling and block actin depolymerization” (The Regents of the University of California, priority 2003, dated 2011)

Columns and labels:
[1] = test system: actin comet tails in Xenopus egg extracts; assay: Actin comet-tail formation in cytoplasmic extracts; format: biochemical, Xenopus laevis
Protocol: In FIGS. 4A and 4B, in vitro polymerized actin forms comet tail from rhodamine-labeled actin added to Xenopus laevis egg cytoplasmic extract. This was set up according to the protocol in Taunton et al., J Cell Biol. 2000 Feb. 7; 148(3):519-30.
Crude Xenopus egg extract was prepared as described except that cytochalasin D was omitted (Murray and Kirschner, Nature. 1989 May 25; 339(6222):275-80). Cytosol and a heavy membrane fraction were prepared by centrifugation of the crude extract (2 h, 300.000 g max; BECKMAN SW-50 rotor). The viscous glycogen pellet beneath the membrane layer was discarded. Cytosol was further clarified by spinning for 15 min at 541,000 g max (BECKMAN TLA 100.3 rotor). Crude membranes (diluted with one volume of 2 M sucrose) and cytosol were snap frozen in separate aliquots for storage at −80° C. unless otherwise indicated. Clarified cytosol contained a small population of vesicles, but motility assays were far more robust (more comet tails over a longer time period) when cytosol was supplemented with the heavy membrane fraction.
For the standard assay, crude membranes in 1 M sucrose (20-μl aliquot, derived from ˜80 μl crude extract) were washed and resuspended in 14 μl buffer A (50 mM NaCl, 5 mM MgCl2, and 50 mM tris [pH 7.5]). To the membrane suspension were added 35 μl cytosol (derived from ˜80 μl crude extract), 0.3 μl rhodamine-labeled actin (prepared according to Kellogg et al., Development. 1988 August; 103(4):675-86), 3 μl PMA (20 μM stock in 10% DMSO), and 20 μl buffer A at 4° C. 20-μl samples were then warmed to room temperature. After 30-40 min, 2-μl aliquots were viewed with a Nikon E800 microscope to yield the photomicrographs of FIG. 4. Images were acquired with a Princeton Instruments cooled CCD camera (standard rhodamine filter set, Princeton Instruments, Trenton, N.J.) and analyzed with WINVIEW (Visitron System, Puchheim, Germany) or METAMORPH software (Princeton Instruments, Trenton, N.J.). Pixels having an intensity over a threshold value (set to a value greater than the background fluorescence in regions devoid of comet tails) were summed over 10 random fields to quantitate relative actin assembly.
Cytosol was supplemented with a crude membrane fraction, rhodamine-actin, 1 μM PMA and peptide SS2 or SS12 (1 μM). After incubating at room temperature for 20 min, samples were viewed by fluorescence. Actin comet tails formed in Xenopus cytoplasmic extracts where no SS2 or SS12 peptides were added as shown by the photographs A, B and E of FIG. 4.

[2] = test system: dextran-labeled electroporated cells; assay: Change in number of dextran-labeled cells after electroporation with peptide; format: cell-based; conditions: for % change in cell number: dextran-labeled cells counted before and after 18 hrs incubation
Protocol: Electroporated cells were treated with fluorescent dextran plus peptide so those cells receiving the peptide could be identified. Typically a very small number of cells successfully incorporate substance during electroporation, making it difficult to identify those receiving peptide. Typically one sees 10-20% incorporation. But, there is good evidence showing that if a cell incorporates one component in buffer, it will incorporate all components. Thus, dextran can be used to identify those cells receiving peptide. After electroporation of cells with fluorescent dextran and the active peptide SEQ ID NO: 12, the dextran-labeled cells were initially counted and then incubated for 18 hrs. After incubation overnight, the dextran-labeled cells were once again counted. The following Tables 4 and 5 show the average change in dextran-labeled cells after the cells are electroporated and the peptide has invaded the cell body. The cell numbers of the SS12 treated peptide seemed to fluctuate after incubation with various concentrations of the SS12 peptide.

Sequence: GIVRKWISRFEVWPYL (SS12 active synthetic peptide)
- effect on actin comet tails ([1]; FIGS. 4C, 4D, 4F, concentration not given): complete disruption of the comet tails
- actin comet tail formation ([1]; peptide 1 μM, 1 μM PMA, 20 min at room temperature): little or no actin comet tail formation
- increase in cell population after incubation ([2]; compared with SS1 control peptide-treated cells): did not exhibit the expected increase in cell population
- % change in cell number [2]: −12.5%
- % change in cell number ([2]; peptide concentration 0.2 μM): +13.21%
- % change in cell number ([2]; peptide concentration 1.0 μM): −1.5%
- % change in cell number ([2]; peptide concentration 10.0 μM): −8.6%
